Source: ChEMBL document CHEMBL5143532, “Discovery of GCC5694A: A potent and selective sodium glucose co-transporter 2 inhibitor for the treatment of type 2 diabetes” (Bioorg Med Chem Lett, 2022)
pIC50: −log10 of the molar value. Activity calls are given as the source filed them. No cut-off for these calls is given here.

How the values were obtained:
[1] = target: T1, Sodium/glucose cotransporter 2 (Homo sapiens, UniProt P31639); test: Inhibition of human SGLT2 expressed in CHO cells by methyl-alpha-D-glucopyranoside assay; type: cell-based
T1 sequence (P31639 whole entry): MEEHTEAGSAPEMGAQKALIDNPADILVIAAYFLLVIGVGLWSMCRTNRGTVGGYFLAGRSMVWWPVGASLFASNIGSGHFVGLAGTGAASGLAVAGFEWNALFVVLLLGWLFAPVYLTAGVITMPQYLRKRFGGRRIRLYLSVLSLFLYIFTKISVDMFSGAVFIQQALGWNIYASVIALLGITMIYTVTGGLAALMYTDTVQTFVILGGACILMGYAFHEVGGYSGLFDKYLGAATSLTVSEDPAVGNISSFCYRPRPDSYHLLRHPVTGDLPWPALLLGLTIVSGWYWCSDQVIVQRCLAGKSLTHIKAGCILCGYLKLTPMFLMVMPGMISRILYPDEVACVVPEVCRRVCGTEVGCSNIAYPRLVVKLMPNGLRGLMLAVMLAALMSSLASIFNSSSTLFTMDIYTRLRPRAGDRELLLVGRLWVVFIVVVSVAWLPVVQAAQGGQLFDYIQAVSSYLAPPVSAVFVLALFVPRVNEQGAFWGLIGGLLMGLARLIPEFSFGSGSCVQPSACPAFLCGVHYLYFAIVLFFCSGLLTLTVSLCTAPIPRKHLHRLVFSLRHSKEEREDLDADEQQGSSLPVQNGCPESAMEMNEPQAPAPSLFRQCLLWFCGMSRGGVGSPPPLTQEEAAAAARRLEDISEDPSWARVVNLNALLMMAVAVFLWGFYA

[2] = target: T2, Sodium/glucose cotransporter 1 (Homo sapiens, UniProt P13866); test: Inhibition of human SGLT1 expressed in CHO cells by methyl-alpha-D-glucopyranoside assay; type: cell-based
T2 sequence (P13866 whole entry): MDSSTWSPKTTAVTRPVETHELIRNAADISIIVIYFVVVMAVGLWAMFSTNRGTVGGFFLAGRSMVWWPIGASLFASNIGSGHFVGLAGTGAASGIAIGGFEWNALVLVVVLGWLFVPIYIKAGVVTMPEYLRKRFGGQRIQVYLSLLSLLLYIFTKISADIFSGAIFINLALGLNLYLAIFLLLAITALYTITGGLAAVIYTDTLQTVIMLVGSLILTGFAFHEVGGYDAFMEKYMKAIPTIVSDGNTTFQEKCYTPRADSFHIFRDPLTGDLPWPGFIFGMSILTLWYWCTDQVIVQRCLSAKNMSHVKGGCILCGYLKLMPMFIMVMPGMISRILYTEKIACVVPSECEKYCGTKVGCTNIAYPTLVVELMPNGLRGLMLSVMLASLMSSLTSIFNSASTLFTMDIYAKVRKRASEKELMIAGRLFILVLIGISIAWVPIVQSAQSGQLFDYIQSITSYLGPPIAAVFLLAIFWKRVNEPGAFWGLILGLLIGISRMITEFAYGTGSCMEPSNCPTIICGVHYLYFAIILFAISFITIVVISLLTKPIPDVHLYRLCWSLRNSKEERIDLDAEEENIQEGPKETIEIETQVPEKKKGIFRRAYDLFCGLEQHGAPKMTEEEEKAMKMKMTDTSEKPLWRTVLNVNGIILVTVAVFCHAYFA

[3] = Selectivity index, ratio of IC50 for human SGLT1 expressed in CHO cells to IC50 for human SGLT2 expressed in CHO cells; type: cell-based
[4] = Metabolic stability in mouse by LC-MS/MS analysis; type: ADME; details: read-out: Stability
[5] = tested on: Rattus norvegicus; test: Increase in urinary glucose excretion in oral-dosed normal Sprague-Dawley rat; type: functional, organism-based; details: Urine, dose 0.1-1 mg/kg
[6] = tested on: Rattus norvegicus; test: Antidiabetic activity in STZ-induced rat model of type 1 diabetes assessed as decrease in hemoglobin A1c level at 0.05 to 0.5 mg/kg for 5 weeks; type: functional, organism-based; details: dose 0.05-0.5 mg/kg
[7] = tested on: Rattus norvegicus; test: Antidiabetic activity in STZ-induced rat model of type 1 diabetes assessed as decrease in blood glucose level at 0.05 to 0.5 mg/kg for 5 weeks; type: functional, organism-based; details: dose 0.05-0.5 mg/kg
[8] = tested on: Mus musculus; test: Antidiabetic activity in type 2 diabetic db/db mouse assessed as decrease in hemoglobin A1c level at 0.05 to 0.5 mg/kg for 5 weeks; type: functional, organism-based; details: dose 0.05-0.5 mg/kg
[9] = tested on: Mus musculus; test: Antidiabetic activity in type 2 diabetic db/db mouse assessed as decrease in blood glucose level at 0.05 to 0.5 mg/kg for 5 weeks; type: functional, organism-based; details: dose 0.05-0.5 mg/kg
[10] = Cmax in Sprague-Dawley rat at 1 mg/kg, iv; type: ADME, organism-based; parameters: dose 1 mg/kg, route iv; details: in vivo
[11] = AUCinfinity in Sprague-Dawley rat at 1 mg/kg, iv; type: ADME, organism-based; parameters: time infinity, dose 1 mg/kg, route iv; details: in vivo
[12] = Terminal elimination half life in Sprague-Dawley rat at 1 mg/kg, iv; type: ADME, organism-based; details: in vivo, read-out: beta t1/2 (converted)
[13] = Tmax in Sprague-Dawley rat at 1 mg/kg, iv; type: ADME, organism-based; details: in vivo
[14] = Cmax in Sprague-Dawley rat at 5 mg/kg, po; type: ADME, organism-based; parameters: dose 5 mg/kg, route po; details: in vivo
[15] = AUCinfinity in Sprague-Dawley rat at 5 mg/kg, po; type: ADME, organism-based; parameters: time infinity, dose 5 mg/kg, route po; details: in vivo
[16] = Terminal elimination half life in Sprague-Dawley rat at 5 mg/kg, po; type: ADME, organism-based; details: in vivo, read-out: beta t1/2 (converted)
[17] = Tmax in Sprague-Dawley rat at 5 mg/kg, po; type: ADME, organism-based; details: in vivo
[18] = Oral bioavailability in Sprague-Dawley rat at 5 mg/kg; type: ADME, organism-based; details: in vivo

Row | pIC50 [2] | half-life [4] [min] | Compound | Ratio IC50 [3] | further results
1 |  |  | Cc1ccc(Cc2cc([C@@H]3O[C@H](CO)[C@@H](O)[C@H](O)[C@H]3O)c3c(c2Cl)OCC3)cc1 |  | pIC50 [1]: 8.84
2 |  |  | COc1ccc(Cc2cc3c(c([C@@H]4O[C@H](CO)[C@@H](O)[C@H](O)[C@H]4O)c2)CCC3)cc1 |  | pIC50 [1]: 8.13
3 | 6.44 | 103 | OC[C@H]1O[C@@H](c2cc(Cc3ccc(C4CC4)cc3)c(Cl)c3c2CCO3)[C@H](O)[C@@H](O)[C@@H]1O [ENAVOGLIFLOZIN] | 780 | Activity [5]: Active; Activity [6]: Active; Activity [7]: Active; Activity [8]: Active; Activity [9]: Active; Cmax [10]: 3300 ng/mL; AUC(0-inf) [11]: 4180 ng·h/mL; half-life [12]: 276 min; Tmax [13]: 4.8 min; Cmax [14]: 2340 ng/mL; AUC(0-inf) [15]: 16200 ng·h/mL; half-life [16]: 294 min; Tmax [17]: 15 min; bioavailability [18]: 77.4%
4 | 6.25 | 44.5 | CCc1ccc(Cc2cc([C@@H]3O[C@H](CO)[C@@H](O)[C@H](O)[C@H]3O)c3c(c2Cl)OCC3)cc1 | 772 | 
5 |  | 57 | C=Cc1ccc(Cc2cc([C@@H]3O[C@H](CO)[C@@H](O)[C@H](O)[C@H]3O)c3c(c2Cl)OCC3)cc1 | 441 | 
6 | 5.86 |  | CCCc1ccc(Cc2cc([C@@H]3O[C@H](CO)[C@@H](O)[C@H](O)[C@H]3O)c3c(c2Cl)OCC3)cc1 | 1170 | 
7 |  | 30.9 | COc1ccc(Cc2cc([C@@H]3O[C@H](CO)[C@@H](O)[C@H](O)[C@H]3O)c3c(c2Cl)CCC3)cc1 |  | 
8 | 5.67 | 111 | CCOc1ccc(Cc2cc([C@@H]3O[C@H](CO)[C@@H](O)[C@H](O)[C@H]3O)c3c(c2Cl)OCC3)cc1 | 1410 | 
9 |  | 42.5 | COc1ccc(Cc2cc([C@@H]3O[C@H](CO)[C@@H](O)[C@H](O)[C@H]3O)c3c(c2Cl)CCO3)cc1 | 20 | 
10 |  | 20.3 | COc1ccc(Cc2cc([C@@H]3O[C@H](CO)[C@@H](O)[C@H](O)[C@H]3O)c3c(c2C)CCC3)cc1 |  | 
11 |  |  | CCOc1ccc(Cc2cc([C@@H]3O[C@H](CO)[C@@H](O)[C@H](O)[C@H]3O)ccc2Cl)cc1 [DAPAGLIFLOZIN] |  | Cmax [10]: 1300 ng/mL; AUC(0-inf) [11]: 3010 ng·h/mL; half-life [12]: 174 min; Tmax [13]: 4.8 min; AUC(0-inf) [15]: 13300 ng·h/mL; Tmax [17]: 40.2 min; bioavailability [18]: 88.4%
12 |  | 37.6 | COc1ccc(Cc2cc([C@@H]3O[C@H](CO)[C@@H](O)[C@H](O)[C@H]3O)c3c(c2Cl)CCCO3)cc1 | 17 | 
13 | 5.31 |  | CC(C)c1ccc(Cc2cc([C@@H]3O[C@H](CO)[C@@H](O)[C@H](O)[C@H]3O)c3c(c2Cl)OCC3)cc1 |  | 
14 | 5.00 |  | OC[C@H]1O[C@@H](c2cc(Cc3ccc(C4CCCC4)cc3)c(Cl)c3c2CCO3)[C@H](O)[C@@H](O)[C@@H]1O | 8560 | 
15 |  |  | COc1ccc(Cc2cc([C@@H]3O[C@H](CO)[C@@H](O)[C@H](O)[C@H]3O)c3c(c2Br)CCC3)cc1 | 35 | 
16 | 5.20 |  | CCCOc1ccc(Cc2cc([C@@H]3O[C@H](CO)[C@@H](O)[C@H](O)[C@H]3O)c3c(c2Cl)OCC3)cc1 | 5150 | 
17 | 6.40 | > 120 | COc1ccc(Cc2cc([C@@H]3O[C@H](CO)[C@@H](O)[C@H](O)[C@H]3O)c3c(c2Cl)OCC3)cc1 | 261 | 
